Results: US8846928B2 (Portola Pharmaceuticals, Inc., priority 2010, dated 2014)
Several values for one entry are separate records, joined by “and”; a condition that tells them apart may be missing. Equal entries are not always repeated.

What follows are molecules tested against T1, full length active recombinant SYK enzyme (Homo sapiens, UniProt P43405) (assay: Inhibition of Syk tyrosine phosphorylation activity (LANCE TR-FRET kinase assay)).
T1 construct: full length active recombinant SYK enzyme (Millipore, Calif.); purchased Millipore
Assay type: biochemical
CC[C@@H](Nc1nc(Nc2ccnc3ccccc23)c(C(N)=O)cc1F)C(N)=O [Example 242, (R)-6-(1-amino-1-oxobutan-2-ylamino)-5-fluoro-2-(quinolin-4-ylamino)nicotinamide] was tested, and the IC50 was 10 to 100 nM.
For CC[C@@H](Nc1nc(Nc2cccc3c2ccn3C)c(C(N)=O)cc1F)C(N)=O [Example 243, (R)-6-(1-amino-1-oxobutan-2-ylamino)-5-fluoro-2-(1-methyl-1H-indol-4-ylamino)nicotinamide], the IC50 was 10 to 100 nM.
CC[C@@H](Nc1nc(Nc2ccc3c(ccn3C)c2)c(C(N)=O)cc1F)C(N)=O [Example 244, (R)-6-(1-amino-1-oxobutan-2-ylamino)-5-fluoro-2-(1-methyl-1H-indol-5-ylamino)nicotinamide] was tested, and the IC50 was 100 to 1000 nM.
CC[C@@H](Nc1nc(Nc2cccc3ncccc23)c(C(N)=O)cc1F)C(N)=O [Example 245, (R)-6-(1-amino-1-oxobutan-2-ylamino)-5-fluoro-2-(quinolin-5-ylamino)nicotinamide] showed an IC50 of 10 to 100 nM.
For CC(C)C[C@@H](Nc1nc(Nc2ccc3cccnc3c2)c(C(N)=O)cc1F)C(N)=O [Example 246, (R)-6-(1-amino-4-methyl-1-oxopentan-2-ylamino)-5-fluoro-2-(quinolin-7-ylamino)nicotinamide], the IC50 was 10 to 100 nM.
Molecule CC(C)C[C@@H](Nc1nc(Nc2cnc3ccccc3c2)c(C(N)=O)cc1F)C(N)=O [Example 247, (R)-6-(1-amino-4-methyl-1-oxopentan-2-ylamino)-5-fluoro-2-(quinolin-3-ylamino)nicotinamide] has an IC50 of 10 to 100 nM.
Work on CC(C)C[C@@H](Nc1nc(Nc2ccc3ncccc3c2)c(C(N)=O)cc1F)C(N)=O [Example 248, (R)-6-(1-amino-4-methyl-1-oxopentan-2-ylamino)-5-fluoro-2-(quinolin-6-ylamino)nicotinamide] yielded an IC50 of 1 to 10 nM.
With CC(C)C[C@@H](Nc1nc(Nc2ccc3c(ccn3C)c2)c(C(N)=O)cc1F)C(N)=O [Example 249, (R)-6-(1-amino-4-methyl-1-oxopentan-2-ylamino)-5-fluoro-2-(1-methyl-1H-indol-5-ylamino)nicotinamide] the IC50 was 10 to 100 nM.
Work on NC(=O)c1cc(F)c(N[C@H](CC2CC2)C(N)=O)nc1Nc1ccc2cccnc2c1 [Example 250, (R)-6-(1-amino-3-cyclopropyl-1-oxopropan-2-ylamino)-5-fluoro-2-(quinolin-7-ylamino)nicotinamide] yielded an IC50 of 10 to 100 nM.
Molecule NC(=O)c1cc(F)c(N[C@H](CC2CC2)C(N)=O)nc1Nc1cnc2ccccc2c1 [Example 251, (R)-6-(1-amino-3-cyclopropyl-1-oxopropan-2-ylamino)-5-fluoro-2-(quinolin-3-ylamino)nicotinamide] has an IC50 of 1 to 10 nM.
With NC(=O)c1cc(F)c(N[C@H](CC2CC2)C(N)=O)nc1Nc1ccc2ncccc2c1 [Example 252, (R)-6-(1-amino-3-cyclopropyl-1-oxopropan-2-ylamino)-5-fluoro-2-(quinolin-6-ylamino)nicotinamide] the IC50 was 1 to 10 nM.
Work on Cc1cc(Nc2nc(N[C@H](CC3CC3)C(N)=O)c(F)cc2C(N)=O)sn1 [Example 253, (R)-6-(1-amino-3-cyclopropyl-1-oxopropan-2-ylamino)-5-fluoro-2-(3-methylisothiazol-5-ylamino)nicotinamide] yielded an IC50 of 10 to 100 nM.
With NC(=O)c1ccc(N[C@@H]2CCCC[C@@H]2N)nc1Nc1ccc2c(c1)OCCO2 [Example 254, 6-((1R,2S)-2-aminocyclohexylamino)-2-(2,3-dihydrobenzo[b][1,4]dioxin-6-ylamino)nicotinamide] the IC50 was 1 to 10 nM.
NC(=O)c1ccc(N[C@@H]2CCCC[C@@H]2N)nc1Nc1ccc2c(c1)OCO2 [Example 255] was tested, and the IC50 was 1 to 10 nM and 10 to 100 nM.
Molecule Cc1cncc(Nc2nc(N[C@@H]3CCCC[C@@H]3N)ccc2C(N)=O)c1 [Example 256] has an IC50 of 1 to 10 nM.
In the case of C[C@H](N)CNc1nc(Nc2cccc(-n3nccn3)c2)c(C(N)=O)cc1F [Example 257, (S)-2-(3-(2H-1,2,3-triazol-2-yl)phenylamino)-6-(2-aminopropylamino)-5-fluoronicotinamide], the IC50 is reported as 1 to 10 nM.
